One data set deals with cholinesterase. The note with it: in rats; cited from earlier work.
Data set [1] in a line: Solubility test in purified water (concentration by HPLC).
For data set [2] the following is noted: cited from earlier work.
For a further data set, the system named is ferrets. Nature of the data set: Emetic response assay in ferrets. The note with it: observed for 4 hours. Here is the method:
• 8 naïve ferrets/dosing group; Nasal versus Oral • Emetic Response Assay • The assay was based on a validated method. Ferrets were monitored and observed for episodes of retching and/or vomiting for 4 hours. • Two formulations dosed: • Emetic Response Assay • The assay was based on a validated method.

Data set [3] can be described thus: Intranasal vs oral galantamine PK in canine subject (plasma, CSF). The note with it: dog, 0.8 mg/kg; for Tmax: plasma.
Data set [4] can be described thus: Intranasal vs oral galantamine PK (plasma) in ferrets.
A short description of data set [5]: Rivastigmine intranasal vs oral PK in rats (CSF and plasma). The settings on record: single intranasal dose.
Experimental: The formulation is administered intranasally or by gastric insertion of a capsule containing the commercial formulation to 12 groups of 6 rats prepped with an indwelling jugular cannula and heparin lock. […] Subsequently, each subject undergoes lumbar puncture with local anaesthesia (xylocalne s.c.), with the retrieval of 50 uL of cerebralspinal fluid (CSF). A paired blood sample from each animal is collected. By assigning groups to different timepoints, the whole PK curve can be assembled. The first CSF sample is collected 5 minutes post dosing and subsequent samples were collected at 20, 50, 75, 100 and 400 minutes.
CSF samples are frozen until analysis.
In data set [6] the test system is in vitro epithelial tissue model. Nature of the data set: TER in in vitro epithelial tissue model with PN159 and galantamine lactate. The settings on record: 25, 50, 100 μM PN159 in the presence of 40 mg/ml galantamine lactate; controls applied apically. It counts as cell-based.

Where “and” joins values, the source holds several entries; their conditions need not be identical. Equal entries are not always repeated. Structures can show the parent of a compound that is named as a salt.

Regarding `O=C(CCC1CCN(Cc2ccccc2)CC1)c1ccc2c(c1)NCCCC2` [TAK-147, 3-[1-(phenylmethyl)-4-piperidinyl]-1-(2,3,4,5-tetrahydro-1H-1-benzazepin-8-yl)-1-propanone], the “minimal therapeutic concentration (MTC)” value in the data set with cholinesterase was 1.1 nmol/gm.

Turning to `COc1ccc2c3c1O[C@H]1C[C@@H](O)C=C[C@@]31CCN(C)C2.O=C(O)[C@H](O)[C@@H](O)[C@H](O)[C@H](O)CO` [galantamine gluconate], the “solubility in water” value in data set [1] was ~1390 mM.

A word on the solubility: it is the concentration that dissolves in the medium under given conditions. Take `COc1ccc2c3c1O[C@H]1C[C@@H](O)C=C[C@@]31CCN(C)C2` [galantamine hydrobromide]: in data set [1] (purified water, thermodynamic from solid), the solubility is ~35000 µg/mL and ~121000 µM. For the same molecule, the “generally reported solubility in water” value in data set [2] was 50 mM.

For `CC(O)C(=O)O.COc1ccc2c3c1O[C@H]1C[C@@H](O)C=C[C@@]31CCN(C)C2` [galantamine lactate], in data set [1], the “solubility in water” value was ~1390 mM.

As usually defined, the Tmax is the time at which the peak concentration occurs. The bioavailability is the share of a dose that reaches the circulation, judged against a reference dose that is usually intravenous. The low end stands for little systemic uptake, the high end for much systemic uptake. As to `COc1ccc2c3c1O[C@H]1C[C@@H](O)C=C[C@@]31CCN(C)C2` [galantamine], in the data set on ferrets, the “incidence of retching / emesis, intranasal vs oral” value is on record as “dramatic reduction in emesis”. Further, the “Tmax in CSF, intranasal vs oral” value in data set [3] is “same trend was observed in the CSF”. Besides, the figures for the time of peak concentration (Tmax) in data set [3] (inhaled or intranasal) and in data set [3] (po) were ~0.5 h and 2 to 3 h, respectively. The bioavailability in data set [4] (ferret, plasma, other: intranasal compared to oral) was ~70%. In data set [4] (ferrets, intranasal 200 mg/ml formulation vs Reminyl oral solution), the “Tmax, plasma, intranasal compared to oral” value was “decreased Tmax”. For the same molecule, the “Cmax, plasma, intranasal compared to oral” value in data set [4] (ferrets, intranasal vs oral) is “about 4 fold”.

In the case of `CCN(C)C(=O)Oc1cccc([C@H](C)N(C)C)c1` [rivastigmine], in data set [5], the “rivastigmine concentration in CSF after intranasal administration” value was “peaks at a level higher than therapeutic levels reported for plasma following oral dosage in man”.

For the molecule `Nc1c2c(nc3ccccc13)CCCC2` [tacrine], in the data set with cholinesterase, the “minimal therapeutic concentration (MTC)” value is reported as 3.5 nmol/gm.

For triton X, the “effect on TER” value in data set [6] is recorded as “did reduce TER”.

Values taken from patent US20060003989A1, “Compositions and methods using acetylcholinesterase (ACE) inhibitors to treat central nervous system (CNS) disorders in mammals” (priority 2002, published 2006).
